Data from patent US20230341377A1, “DISCONNECTION AGENTS” (DC Europa Limited, priority 2020, published 2023).

How the values were obtained:
[1] = test system: human patient-derived S24 glioblastoma cells; assay: Example 6: orthotopic S24 glioblastoma, TPPB followed by radiotherapy, intravital microscopy; format: in vivo, NMRI mice
Method: Orthotopic brain tumours were induced in NMRI mice using human patient-derived S24 glioblastoma cells exactly as described in Example 4. Once significant tumours were established in vivo (approximately 35 days after implantation), as shown by intravital microscopy exactly as described in Example 4, mice received 4 intraperitoneal injections on day -1, day 6 and day 13 and day 20, with Control mice receiving vehicle only and Treated mice receiving TPPB at 200 μg/kg. All mice then received radiotherapy on days 0, 1 and 2 exactly as described in Example 4, except that the radiation dose was 6 Gy as opposed to 7 Gy on each occasion (18 Gy total radiation dose as opposed to 21 Gy total radiation dose). The impact of treatment on the tumour was then monitored by intravital microscopy at intervals after the initiation of radiotherapy on day 0.

PKCε = target: T1, PKCε (Homo sapiens, UniProt Q02156); parameters: key: +—activation; ++—strong activation; conditions: nPKCs, gene PRKCE; cited from earlier work
T1 sequence (Q02156 1-737): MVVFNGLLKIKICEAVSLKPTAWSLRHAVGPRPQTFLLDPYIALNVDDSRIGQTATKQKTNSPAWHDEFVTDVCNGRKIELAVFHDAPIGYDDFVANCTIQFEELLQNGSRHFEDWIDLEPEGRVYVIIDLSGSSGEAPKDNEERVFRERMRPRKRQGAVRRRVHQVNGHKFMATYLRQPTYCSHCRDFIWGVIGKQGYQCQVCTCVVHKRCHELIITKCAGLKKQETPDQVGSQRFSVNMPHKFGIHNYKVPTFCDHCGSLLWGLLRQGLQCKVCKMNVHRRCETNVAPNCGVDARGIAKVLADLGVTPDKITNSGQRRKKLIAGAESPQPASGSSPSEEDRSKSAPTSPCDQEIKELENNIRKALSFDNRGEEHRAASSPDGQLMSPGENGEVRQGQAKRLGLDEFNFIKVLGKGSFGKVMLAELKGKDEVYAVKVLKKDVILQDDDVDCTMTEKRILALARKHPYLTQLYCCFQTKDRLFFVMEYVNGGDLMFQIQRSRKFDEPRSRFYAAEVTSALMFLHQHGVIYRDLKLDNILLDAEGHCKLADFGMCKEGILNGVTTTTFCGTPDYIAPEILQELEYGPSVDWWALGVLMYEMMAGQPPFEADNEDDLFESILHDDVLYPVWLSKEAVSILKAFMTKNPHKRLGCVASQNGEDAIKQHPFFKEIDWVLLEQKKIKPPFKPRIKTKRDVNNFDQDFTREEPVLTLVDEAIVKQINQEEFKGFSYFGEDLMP

[2] = TPPB 200 μg/kg i.p. followed by radiotherapy, all mice

CC(C)[C@H]1C(=O)N[C@H](CO)Cc2cc(NC(=O)/C=C/C=C/c3ccc(C(F)(F)F)cc3)ccc2N1C [TPPB, (2E,4E)-N-[(2S,5S)-1,2,3,4,5,6-Hexahydro-5-(hydroxymethyl)-1-methyl-2-(1-methylethyl)-3-oxo-1,4-benzodiazocin-8-yl]-5-[4-(trifluoromethyl)phenyl]-2,4-pentadienamide]
tumour cell morphology ([1]; TPPB 200 μg/kg i.p. + radiotherapy, from day 35 after initiation of radiotherapy): marked change in morphology | outcome of orthotopic solid brain tumour ([1]; TPPB 200 μg/kg i.p. day -1, 6, 13, 20, radiotherapy 6 Gy days 0, 1, 2, by day 91): complete cure | tumour cells in field of view ([1]; TPPB 200 μg/kg i.p. day -1, 6, 13, 20, radiotherapy 6 Gy days 0, 1, 2, day 91): no detectable tumour cells | behavioural or clinical signs associated with the treatment [1, 2]: no behavioural or clinical signs | tolerability [1, 2]: well tolerated | activation of PKCε (PKCε): +
